Experimental findings from patent publication US8642640B2, “1-phenylpyrrole derivatives” (Exelixis, Inc., priority 2008, dated 2014) are described below.

Data set [1] deals with T1, human mineralocorticoid receptor (hMR) (Homo sapiens, UniProt P08235).
T1 construct: expressed in transfected cells; host or cells: HEK293
T1 sequence (P08235 726-964 limits assumed): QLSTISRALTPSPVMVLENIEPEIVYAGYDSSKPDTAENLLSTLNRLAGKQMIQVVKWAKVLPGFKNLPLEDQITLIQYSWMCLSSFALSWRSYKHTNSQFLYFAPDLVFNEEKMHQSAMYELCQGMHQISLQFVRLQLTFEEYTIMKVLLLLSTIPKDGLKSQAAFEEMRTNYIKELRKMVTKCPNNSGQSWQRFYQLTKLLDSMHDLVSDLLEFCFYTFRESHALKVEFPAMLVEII
Nature of the data set: GAL4-hMR-LBD luciferase reporter assay in HEK293 cells with 1 nM aldosterone (Test Example 1).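 On Imax: 0% is DMSO-only control and 100% is 1 nM aldosterone alone.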 In kind it is cell-based. To be noted: for Emax: HEK293, read-out: Imax; for IC50: concentration showing Imax/2, HEK293, GAL4-hMR-LBD, 1 nM aldosterone, overnight, read-out: ICmax50. The method, then: A plasmid pM-hMR-LBD expressing GAL4-hMR receptor, which has a ligand binding domain (LBD, corresponding to approximately 308 amino acids at the carboxy terminus) of human mineralocorticoid receptor (hMR, NM_000901) bonded to a DNA binding domain of yeast transcription factor GAL4 (corresponding to 147 amino acids at the amino terminus), was prepared. Reporter assay was conducted by using a reporter plasmid (such as plasmid pFR-Luc of […] CLONING SYSTEMS) including a luciferase gene, having a sequence (UAS sequence) which binds to the DNA binding domain of GAL4.
The plasmid pM-hMR-LBD and the reporter plasmid as obtained above were gene transferred into renal cell line HEK293 of human fetus by lipofection. On the next day, cells were collected by trypsin treatment, and dispensed with DMEM culture medium containing 5% of FBS treated by activated charcoal, to a white 96-well plate (Costar) with the amount of 95 microliter per well.
The test compounds were used as dissolved in dimethyl sulfoxide at a predetermined concentration, and the test compounds suitably diluted with culture media were added to the cells on the white 96-well plate so that the final concentration becomes 0.1%. […] After the addition, cultivation was carried out overnight.
On the next day, the culture media was removed, and then luciferase substrate (Wako Pure Chemical Industries, Ltd.) was prepared in accordance with the attached document and were added to each well by 50 microliters. Stirring was conducted for approximately 30 minutes, and the amount of luminescence was measured for each well by using Analyst (Molecular Devices), to obtain luciferase activity. A graph which plots relative luciferase activity values, when the luciferase activity value of Control group 1 was taken as 0% and the luciferase activity value of Control group 2 was taken as 100%, for each of the amount of the test compound addition group was made.
On the technique in general: A reporter such as luciferase makes a cellular process visible.

The nature of data set [2]: Plasma concentration after intragastric administration to cynomolgus monkey (Test Example 2). Format: in vivo. To be noted: for AUC, area under the plasma concentration versus time curve / Cmax: male cynomolgus monkey, 3 mg/kg intragastric in 0.5% MC, LC-MS/MS, plasma; for AUC, area under the plasma concentration versus time curve: noncompartment model; for Cmax: po, read-out: Cmax, maximum concentration. The method, then:
Cynomolgus monkey (male) was used, and it was fasted from the day before administration of the test compound.
Administration samples were prepared by adding a 0.5% MC (methyl cellulose) solution to the Test Compound, so that the dose becomes 3 mg/2 mL/kg. Each of the administration samples was administered intragastrically to the cynomolgus monkey by using a tube. After the samples were administered, approximately 5 mL of 0.5% MC was administered. For each of the administration samples, a group of two cynomolgus monkeys was administered.
With respect to collection of blood, it was conducted by collecting approximately 0.5 mL of blood from crotch vein using a glass syringe treated with heparin, before administration, and 30 minutes, 1, 2, 4, 6, 8, 24 and 48 hours after administration. Blood was centrifuged (1,700×g, 15 min, 4° C.) to obtain plasma. Plasma was stored in a freezer (−20° C.) until pretreatment.
Preparation of standard solution and internal standard (IS) solution: Each of the Test Compounds was dissolved in DMSO (dimethyl sulfoxide) to prepare a solution of 10 mM each. Each of the compound solution was diluted with acetonitrile, and thus standard solution was prepared. Further, niflumic acid (Wako Pure Chemical Industries, Ltd.) was dissolved in DMSO at the concentration of 2 mM, followed by dilution with acetonitrile to prepare an IS solution of 2 μM.
Pretreatment of plasma samples: 20 μL of plasma sample was collected, and then 25 μL of purified water, 100 μL of acetonitrile, and 100 μL of methanol was added. For the preparation of a calibration curve, 25 μL of purified water, 20 μL of each of the standard solutions (acetonitrile solution), 80 μL of acetonitrile, and 100 μL of methanol were added to 20 μL of blank plasma. 40 μL of the acetonitrile solution of IS was added to all of the samples, and then the samples were stirred, filtered by suction using Captiva filter plate (Varian, Inc.), and then the filtrate was used as the sample for LC-MS/MS analysis.
Quantitative Determination of Test Compound: Concentration in plasma was analyzed by LC-MS/MS method for each Test Compound.
Analysis: Pharmacokinetic parameter was calculated from concentration of each of the drugs in plasma, by using WinNonlin Professional (Ver. 4.0.1, Pharsight Corporation). Here, Noncompartment model was used as the model for parameter calculation.

As to `Cc1c(C(=O)Nc2ccc(S(C)(=O)=O)cc2)cc(CCO)n1-c1ccc(Cl)cc1C(F)(F)F` (single isomer, unassigned) [Example 1 - isomer A, 1-[4-Chloro-2-(trifluoromethyl)phenyl]-5-(2-hydroxyethyl)-2-methyl-N-[4-(methylsulfonyl)phenyl]-1H-pyrrole-3-carboxamide], in data set [1], the Emax stood at 87% and the IC50 is 3.7 nM. For the same compound, in data set [2], the “AUC, area under the plasma concentration versus time curve” value worked out at 14110 ng·h/mL and the Cmax came out at 990 ng/mL.
For `Cc1c(C(=O)Nc2ccc(S(C)(=O)=O)cc2)cc(C[C@H](C)O)n1-c1ccc(F)cc1C(F)(F)F` (single isomer, unassigned) [Example 5 - isomer A] the same measures were 119%, 3.4 nM, 31310 ng·h/mL and 1600 ng/mL.
`Cc1c(C(=O)Nc2ccc(S(C)(=O)=O)cc2)cc(C[C@H](C)O)n1-c1ccc(Cl)cc1C(F)(F)F` (single isomer, unassigned) [Example 6 - isomer A]: in data set [1], the Emax stood at 79% and the IC50 came out at 3.1 nM. Further, in data set [2], the “AUC, area under the plasma concentration versus time curve” value came to 30280 ng·h/mL and the Cmax was found to be 1730 ng/mL.
Turning to `Cc1c(C(=O)Nc2ccc(S(C)(=O)=O)cc2)cc(C[C@H](C)O)n1-c1ccc(F)cc1OC(F)F` (single isomer, unassigned) [Example 9 - isomer A], in data set [1], the Emax worked out at 84% and the IC50 worked out at 18 nM. Besides, in data set [2], the “AUC, area under the plasma concentration versus time curve” value stood at 23950 ng·h/mL and the Cmax was determined as 2350 ng/mL.
As to `Cc1c(C(=O)Nc2ccc(S(C)(=O)=O)cc2)cc(C[C@H](C)O)n1-c1ccc(Cl)cc1OC(F)F` (single isomer, unassigned) [Example 11 - isomer A], in data set [1], the Emax amounted to 89% and the IC50 was determined as 7.3 nM. Moreover, in data set [2], the “AUC, area under the plasma concentration versus time curve” value is 24810 ng·h/mL and the Cmax was found to be 1600 ng/mL.
For the compound `Cc1c(C(=O)Nc2ccc(S(C)(=O)=O)cc2)cc(C[C@H](C)O)n1-c1ccc(F)cc1OC(F)(F)F` (single isomer, unassigned) [Example 16 - isomer A], in data set [1], the Emax came out at 101% and the IC50 worked out at 3.6 nM. Besides, in data set [2], the “AUC, area under the plasma concentration versus time curve” value is 13490 ng·h/mL and the Cmax came out at 1000 ng/mL.
In the case of `Cc1c(C(=O)Nc2ccc(S(C)(=O)=O)cc2)cc(C[C@H](C)O)n1-c1ccc(F)cc1Cl` (single isomer, unassigned) [Example 40 - isomer A], in data set [1], the Emax amounted to 91% and the IC50 was determined as 9.6 nM. For the same compound, in data set [2], the “AUC, area under the plasma concentration versus time curve” value amounted to 15110 ng·h/mL and the Cmax is 1300 ng/mL.
In the case of `Cc1c(C(=O)Nc2ccc(S(C)(=O)=O)cc2)cc(C[C@H](C)O)n1-c1ccc(Cl)cc1OC(F)(F)F` (single isomer, unassigned) [Example 42 - isomer B], in data set [1], the Emax was determined as 95% and the IC50 is 2.7 nM. Besides, in data set [2], the “AUC, area under the plasma concentration versus time curve” value was 23860 ng·h/mL and the Cmax was 1660 ng/mL.
Take `Cc1c(C(=O)Nc2ccc(S(C)(=O)=O)cc2)cc(C[C@H](C)O)n1-c1ccc(Cl)cc1Cl` (single isomer, unassigned) [Example 43 - isomer A]: in data set [1], the Emax is 123% and the IC50 was 5.5 nM. Further, in data set [2], the “AUC, area under the plasma concentration versus time curve” value was determined as 14820 ng·h/mL and the Cmax is 1140 ng/mL.
On the same counts, the results for `CCc1c(C(=O)Nc2ccc(S(C)(=O)=O)cc2)cc(C[C@H](C)O)n1-c1ccc(F)cc1Cl` (single isomer, unassigned) [Example 44 - isomer B] are 98%, 12 nM, 16920 ng·h/mL and 940 ng/mL.
For the compound `Cc1cc(Cl)ccc1-n1c(CCF)cc(C(=O)Nc2ccc(S(C)(=O)=O)cc2)c1C` (single isomer, unassigned) [Example 51 - isomer A, 1-(4-Chloro-2-methylphenyl)-5-(2-fluoroethyl)-2-methyl-N-[4-(methylsulfonyl)phenyl]-1H-pyrrole-3-carboxamide], in data set [1], the Emax was found to be 124% and the IC50 was found to be 11 nM. Moreover, in data set [2], the “AUC, area under the plasma concentration versus time curve” value worked out at 10940 ng·h/mL and the Cmax came to 830 ng/mL.
As for `Cc1c(C(=O)Nc2ccc(S(C)(=O)=O)cc2)cc(CCF)n1-c1ccc(F)cc1OC(F)F` (single isomer, unassigned) [Example 54 - isomer A, 1-[2-(Difluoromethoxy)-4-fluorophenyl]-5-(2-fluoroethyl)-2-methyl-N-[4-(methylsulfonyl)phenyl]-1H-pyrrole-3-carboxamide], in data set [1], the Emax came to 99% and the IC50 was 6.5 nM. In data set [2], the “AUC, area under the plasma concentration versus time curve” value was determined as 11410 ng·h/mL and the Cmax turned out to be 970 ng/mL.
In the case of `Cc1c(C(=O)Nc2ccc(S(C)(=O)=O)cc2)cc(CCF)n1-c1ccc(F)cc1OC(F)F` [Example 54, 1-[2-(Difluoromethoxy)-4-fluorophenyl]-5-(2-fluoroethyl)-2-methyl-N-[4-(methylsulfonyl)phenyl]-1H-pyrrole-3-carboxamide], in data set [1], the Emax was found to be 75% and the IC50 was determined as 14 nM.
As to `Cc1c(C(=O)Nc2ccc(S(C)(=O)=O)cc2)cc(CC(=O)N(C)C)n1-c1ccc(Cl)cc1C(F)(F)F` [Example 61, 1-[4-Chloro-2-(trifluoromethyl)phenyl]-5-[2-(dimethylamino)-2-oxoethyl]-2-methyl-N-[4-(methylsulfonyl)phenyl]-1H-pyrrole-3-carboxamide], in data set [1], the Emax is 115% and the IC50 stood at 5.5 nM.
For the compound `Cc1c(C(=O)Nc2ccc(S(C)(=O)=O)cc2)cc(CCO)n1-c1ccc(F)cc1C(F)(F)F` [Example 62, 1-[4-Fluoro-2-(trifluoromethyl)phenyl]-5-(2-hydroxyethyl)-2-methyl-N-[4-(methylsulfonyl)phenyl]-1H-pyrrole-3-carboxamide], in data set [2], the “AUC, area under the plasma concentration versus time curve” value was determined as 8060 ng·h/mL and the Cmax is 660 ng/mL. In addition, the “concentration in plasma compared with Reference compound A and Reference compound B” value in data set [2] (summary of Table 16, cynomolgus monkey, 3 mg/kg) is on record as “considerably improved concentration in plasma”.
For `Cc1cc(C(=O)Nc2ccc(S(C)(=O)=O)cc2)c(C)n1-c1ccccc1C(F)(F)F` [Reference compound A, 1-[2-(trifluoromethyl)phenyl]-2,5-dimethyl-N-[4-(methylsulfonyl)phenyl]-1H-pyrrole-3-carboxamide, reference compound], in data set [1], the Emax was 114% and the IC50 stood at 14 nM. Moreover, in data set [2], the “AUC, area under the plasma concentration versus time curve” value amounted to 30 ng·h/mL and the Cmax was < 10 ng/mL.
